Reference: patent US10829446B2, “Aryl sulfonohydrazides” (MONASH UNIVERSITY, priority 2015, dated 2020)

Assays:
Format in all cases: cell-based
[1] = system: Eμ-Myc pre-leukemia pre-B cells; test: Bioassay 6: proliferation curves of pre-B cells on OP9 feeder layer, Eμ-Myc
Excerpt: Pre B cells are isolated from bone marrow according to the criterion: cell surface expression of B220, CD19, but not cKit or IgM. Proliferation curves of wild type pre-B cells and Ep-Myc pre-leukemia pre B cells are generated by counting cells cultured on OP9 cell feeder layer in the presence of the growth factor IL-7. Media is changed every two days and cells are passaged every 4 days.

Wild type pre B cells = test: Bioassay 7: pre-B cell number dose response, wild type; details: B-cell, 96 h; wild type Pre B cells; 4 days
Protocol: (§1) Pre B cells are isolated from bone marrow according to the criterion: cell surface expression of B220, CD19, but not cKit or IgM. Pre-B cells are cultured on OP9 cells with IL7 in the presence of compounds at concentrations from 0.01 μM to 20 μM in vitro for 4 days. Cell number is then enumerated and an IC50 is calculated.

wild type pre-B cells = test: Bioassay 9: cell cycle analysis (DNA content and BrdU)
Protocol: Pre B cells are isolated from bone marrow according to the criterion: cell surface expression of B220, CD19, but not cKit or IgM. Pre-B cells are cultured on OP9 cells with IL7 in the presence of compounds at various concentrations. The stages of the cell cycle in pre-B cells with and without treatment is analysed using flow cytometry to assay, using a stain for DNA content combined with BrdU to determine the proportion of cells in S phase.

Cdc6 mRNA = test: Bioassay 2: RT-qPCR of MOZ target genes in mouse embryonic fibroblasts; details: 5 μM
Protocol: (§2) Mouse embryonic fibroblasts are isolated from wild type or Moz heterozygous animals and cultured at 3% oxygen/5% carbon dioxide/92% nitrogen. Cells are plated at a density of 1,020 cells/cm^2 or 2,040 cells/cm^2 or 10,204 cells/cm^2. A reference value for MOZ inhibition is generated through comparison with cells with a complete null mutation of MOZ. The absence of a functional Moz gene leads to senescence in 7-14 days at 3% oxygen.
Cells are plated in triplicate at 2,040 cells/cm^2 in the presence of a test compound. Compounds are tested at 500 nM, 1 μM, 2 μM, 5 μM, 10 μM and 20 μM. Control compounds include those that have a similar structure but show no activity in biochemical assays. […] RT-qPCR is used to assay the levels of MOZ target genes Ink4a, ink4b, Arf, Cdc6, Cdca8, Cdca2, E2f2, Ezh2, Skp2 and Melk.

[2] = system: mouse embryonic fibroblasts expressing KrasG12V; test: Bioassay 4: cumulative cell counts, KrasG12V expression; details: for Cumulative Cell Counts: KrasG12V
Protocol: (§3) To test if cells expressing mutant forms of RAS sensitized to senescence induction, MOZ inhibitors were combined with the ectopic expression of KRASG12V. Cells are plated in triplicate cultures at 10,204 cells/cm2 then transfected with control retroviral vectors pBABE or pBABE containing a mutant KrasG12V expression cassette. Cultures were maintained at 3% O2. Selection for transfected cells is achieved using puromycin. Compounds are tested at 0 μM 1 μM, 2.5 μM, and 5 μM. After 48 hours, cells are passaged and counted, then replated at 10,204/cm2. This procedure is continued for 336 hours. The total number of cells produced at each passage is then calculated and compared between treatment groups. Cellular senescence is determined by cell cycle arrest. Comparisons are between cells treated with vehicle only expressing the control vector, cells treated with 5 μM expressing the control vector (concentration shown in bioassay 1 to produce cellular senescence) and cells treated with 0 uM 1 μM, 2.5 μM, and 5 μM expressing the KrasV12 expressing vector vector

[3] = system: mouse embryonic fibroblasts transfected with control retroviral vector pBABE; test: Bioassay 4: cumulative cell counts, control vector pBABE; details: 5 μm
Protocol: as §3

[4] = system: Eμ-Myc pre-leukemia pre B cells; test: Bioassay 7: pre-B cell number dose response, Eμ-Myc
Protocol: as §1

[5] = system: Mouse embryonic fibroblasts; test: Bioassay 1: cellular senescence of mouse embryonic fibroblasts; details: for up regulation of β-galactosidase: […] after plating
Protocol: as §2
Cells are plated in triplicate cultures at 10,204 cells/cm^2 in the presence of a test compound. Compounds are tested at 500 nM, 1 μM, 2 μM, 5 μM, 10 μM and 20 μM. Control compounds include those that have a similar structure but show no activity in biochemical assays. After 48 hours, cells are passaged and counted, then replated at 10,204/cm^2. This procedure is continued for 336 hours. The total number of cells produced at each passage is then calculated and compared between treatment groups. […] Cells are analysed by flow cytometry for the absence of markers of apoptosis by staining with propidium iodide and FITC-conjugated annexin V. The level of DNA damaged is assessed by γH2A.X staining, a marker of DNA strand breaks.

wild type pro-B cells = test: Bioassay 5: pro-B cell colony formation in methylcellulose, wild type
Protocol: Pro-B cells are purified by positive selection using antiCD19-magnetic beads and fluorescence activated cell sorting using the criterion: cell surface expression of B220, CD19 and cKit but not IgM. After purification, 25,000 pro-B cells are seeded onto 3.5 cm culture dishes plate containing methylcellulose (MethoCult M3630, STEM CELL technologies) for 7 days. After 7 days culture, colonies in which there were more than 50 cells are counted. Subsequently, 190,000 pro-B cells are replated into methylcellulose for another 7 days of culture, followed by enumeration.

Cc1cc(-c2ccccc2)cc(C(=O)NNS(=O)(=O)c2ccccc2)c1F [Compound 36]
cumulative average cell number ([1]; 0.2 μM, Day 4): 373055 | cumulative average cell number ([1]; 0.2 μM, Day 8): 1110631 | cumulative average cell number ([1]; 0.2 μM, Day 12): 464403 | cumulative average cell number ([1]; 0.2 μM, Day 16): 81501 | cumulative average cell number ([1]; 1 μM, Day 4): 172777 | cumulative average cell number ([1]; 1 μM, Day 8): 135815 | cumulative average cell number ([1]; 1 μM, Day 12): 29983 | cumulative average cell number ([1]; 1 μM, Day 16): 0 | cumulative average cell number ([1]; 5 μM, Day 4): 79444 | cumulative average cell number ([1]; 5 μM, Day 8): 33236 | cumulative average cell number ([1]; 5 μM, Day 12): 0 | cumulative average cell number ([1]; 5 μM, Day 16): 0 | proliferation of pre-leukaemic B cell progenitors ([1]; in words, compared to vehicle): inhibited | IC50 (Wild type pre B cells): 364 nM | cells in G0/G1 (BrdU) (wild type pre-B cells; 1 μM): 54.9 | cells in G2/M (BrdU) (wild type pre-B cells; 1 μM): 5.5 | cells in S (BrdU) (wild type pre-B cells; 1 μM): 32.7 | cells in G0/G1 (wild type pre-B cells; in words): increase in cells in G0/G1 | cells in S-phase (wild type pre-B cells; in words): reduction of cells in S-phase | CDC6 mRNA % control (Cdc6 mRNA): 65.1% | Cumulative Cell Counts ([2]; 1 μm, 96 h): 128333.3 | Cumulative Cell Counts ([2]; 1 μm, 336 h): 132000 | Cumulative Cell Counts ([2]; 2.5 μm, 96 h): 141666.7 | Cumulative Cell Counts ([2]; 2.5 μm, 336 h): 94133.33 | Cumulative Cell Counts ([2]; 5 μm, 96 h): 126666.7 | Cumulative Cell Counts ([2]; 5 μm, 336 h): 50940 | cell number in the presence of mutant KRas ([2]; in words): dose dependent decrease in cell number | Cumulative Cell Counts ([3]; 96 h): 198333.3 | Cumulative Cell Counts ([3]; 336 h): 226600 | IC50 ([4]; B-cell, 96 h, Eμ-Myc pre-leukemia pre B cells, 4 days): 421 nM | suppression of pre B cell proliferation in cells expressing the cMyc oncogene ([4]; in words): effective in suppression of pre B cell proliferation | up regulation of β-galactosidase ([5]; 5 μM): 186% | up regulation of β-galactosidase ([5]; 10 μM): 195% | up regulation of β-galactosidase ([5]; 20 μM): 185% | IC50 ([5]; Mus musculus, Fibroblast, read-out: IC50 (dose at which 50% senescence occur), Bioassay 1): 1600 nM | colony number (wild type pro-B cells; 1 μM, wild type pro-B cells, primary colonies): 161.25 | colony number, secondary colony formation (wild type pro-B cells; 1 μM, wild type pro-B cells, secondary colony formation): 12.25 | colony formation (wild type pro-B cells; in words, compared to vehicle): greatly inhibits colony formation
